Data published in PubChem BioAssay AID248 (DTP/NCI, 2004).
Inconclusive results and toxic doses are left out.

Test system: L1210 leukemia ip in BDF1 mice, survival T/C
Assay: NCI In Vivo Anticancer Drug Screen. Data for tumor model L1210 Leukemia (intraperitoneal) in B6D2F1 (BDF1) mice
Conditions: endpoint: mean survival time, higher = longer survival
Method in brief: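 Value reflects the ratio of survival in compound-treated mice to survival in vehicle-treated controls, with both groups carrying the same transplanted tumor.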

[1] = dose: 100.0 mg/kg/injection, schedule: Q01DX001 (ip), vehicle: saline
[2] = dose: 200.0 mg/kg/injection, schedule: Q01DX001 (ip), vehicle: saline
[3] = dose: 100.0 mg/kg/injection, schedule: Q01DX009 (ip), vehicle: Klucel (hydroxypropylcellulose) (HPC)
[4] = dose: 100.0 mg/kg/injection, schedule: Q04DX003 (ip), vehicle: Klucel (hydroxypropylcellulose) (HPC)
[5] = dose: 200.0 mg/kg/injection, schedule: Q04DX003 (ip), vehicle: Klucel (hydroxypropylcellulose) (HPC)

Which T/C (dose: 30.0 mg/kg/injection, schedule: Q01DX015 (ip), vehicle: water) does the source give for `CC(C)CCC1=C(O)c2ccccc2C(=O)C1=O` here?
The T/C was 100 % of control.

What about the T/C (dose: 35.0 mg/kg/injection, schedule: Q01DX015 (ip), vehicle: water) of the same molecule?
The T/C was 106 % of control.

And the T/C (dose: 45.0 mg/kg/injection, schedule: Q01DX015 (ip), vehicle: water)?
The T/C was 95 % of control.

What about the T/C (dose: 70.0 mg/kg/injection, schedule: Q01DX015 (ip), vehicle: water) of the same molecule?
The T/C was 103 % of control.

Which T/C (dose: 2.5 mg/kg/injection, schedule: Q01DX001 (ip), vehicle: acetone) does the source give for `Cc1ccc([I+]c2ccc(C)c(C)c2C)c(C)c1C` here?
The T/C was 100 % of control.

And the T/C (dose: 5.0 mg/kg/injection, schedule: Q01DX001 (ip), vehicle: acetone)?
The T/C was 102 % of control.

And the T/C (dose: 10.0 mg/kg/injection, schedule: Q01DX001 (ip), vehicle: acetone)?
Its T/C is 96 % of control.

What about the T/C (dose: 22.0 mg/kg/injection, schedule: Q01DX001 (ip), vehicle: acetone) of the same molecule?
Its T/C is 103 % of control.

How did the T/C (dose: 1.56 mg/kg/injection, schedule: Q01DX Z (ip), vehicle: other) turn out when `CC(=O)CCC(=O)O` was run?
Its T/C is 98 % of control.

What about the T/C (dose: 3.13 mg/kg/injection, schedule: Q01DX Z (ip), vehicle: other) of the same molecule?
Its T/C is 96 % of control.

What about the T/C (dose: 6.25 mg/kg/injection, schedule: Q01DX Z (ip), vehicle: other) of the same molecule?
Its T/C is 96 % of control.

What about the T/C (dose: 12.5 mg/kg/injection, schedule: Q01DX Z (ip), vehicle: other) of the same molecule?
Its T/C is 95 % of control.

What about the T/C (dose: 25.0 mg/kg/injection, schedule: Q01DX Z (ip), vehicle: other) of the same molecule?
The T/C was 95 % of control.

What about the T/C (dose: 50.0 mg/kg/injection, schedule: Q01DX Z (ip), vehicle: other) of the same molecule?
The T/C was 98 % of control.

What about the T/C (dose: 100.0 mg/kg/injection, schedule: Q01DX Z (ip), vehicle: other) of the same molecule?
Its T/C is 113 % of control.

And the T/C (dose: 100.0 mg/kg/injection, schedule: Q04DX002 (ip), vehicle: saline)?
The T/C was 88 % of control.

What about the T/C (dose: 200.0 mg/kg/injection, schedule: Q01DX Z (ip), vehicle: other) of the same molecule?
The T/C was 96 % of control.

And the T/C (dose: 200.0 mg/kg/injection, schedule: Q04DX002 (ip), vehicle: saline)?
Its T/C is 100 % of control.

And the T/C (dose: 400.0 mg/kg/injection, schedule: Q04DX002 (ip), vehicle: saline)?
The T/C was 118 % of control.

What does the source list for `OC(CCN1CCCCC1)(c1cccs1)C(O)(CCN1CCCCC1)c1cccs1` (stereo not drawn)?
T/C [1]: 97 % of control; T/C [2]: 90 % of control

How did the T/C (dose: 25.0 mg/kg/injection, schedule: Q01DX009 (ip), vehicle: Klucel (hydroxypropylcellulose) (HPC)) turn out when `Clc1cc(C(Cl)(Cl)Cl)ccc1C(Cl)(Cl)Cl` was run?
The T/C was 89 % of control.

And the T/C (dose: 50.0 mg/kg/injection, schedule: Q01DX009 (ip), vehicle: Klucel (hydroxypropylcellulose) (HPC))?
Its T/C is 92 % of control.

And the T/C [3]?
Its T/C is 90 % of control.

How did the T/C (dose: 50.0 mg/kg/injection, schedule: Q01DX001 (ip), vehicle: saline) turn out when `O=C(CCl)c1ccc(Oc2ccc(C(=O)CCl)cc2)cc1` was run?
Its T/C is 100 % of control.

And the T/C [1]?
Its T/C is 97 % of control.

What about the T/C [2] of the same molecule?
The T/C was 97 % of control.

And the T/C (dose: 400.0 mg/kg/injection, schedule: Q01DX001 (ip), vehicle: saline)?
The T/C was 105 % of control.

How did the T/C (dose: 0.39 mg/kg/injection, schedule: Q01DX009 (ip), vehicle: saline) turn out when `C=C(C)C(=O)[O][Sn]([CH2]CCC)([CH2]CCC)[CH2]CCC` was run?
Its T/C is 98 % of control.

What about the T/C (dose: 0.78 mg/kg/injection, schedule: Q01DX009 (ip), vehicle: saline) of the same molecule?
The T/C was 105 % of control.

And the T/C (dose: 1.56 mg/kg/injection, schedule: Q01DX009 (ip), vehicle: saline)?
Its T/C is 94 % of control.

And the T/C (dose: 6.25 mg/kg/injection, schedule: Q01DX009 (ip), vehicle: saline)?
The T/C was 92 % of control.

`CN(C)c1ccc(/C=N/NC(=O)c2cnc3ccccc3c2)cc1` was tested. Which T/C (dose: 100.0 mg/kg/injection, schedule: Q04DX002 (ip), vehicle: saline with Tween-80) did it give?
Its T/C is 102 % of control.

What about the T/C (dose: 200.0 mg/kg/injection, schedule: Q04DX002 (ip), vehicle: saline with Tween-80) of the same molecule?
Its T/C is 97 % of control.

And the T/C (dose: 400.0 mg/kg/injection, schedule: Q04DX002 (ip), vehicle: saline with Tween-80)?
Its T/C is 94 % of control.

Which T/C (dose: 100.0 mg/kg/injection, schedule: Q01DX009 (ip), vehicle: saline) does the source give for `CC12C=CC(CC1)C2(C)C` (stereo not drawn) here?
Its T/C is 95 % of control.

What about the T/C (dose: 200.0 mg/kg/injection, schedule: Q01DX009 (ip), vehicle: saline) of the same molecule?
Its T/C is 92 % of control.

How did the T/C (dose: 50.0 mg/kg/injection, schedule: Q01DX001 (ip), vehicle: saline with Tween-80) turn out when `CCOC(=O)c1ccc(NCc2nnc3nc(N)[nH]c(=O)c3n2)cc1` was run?
The T/C was 102 % of control.

And the T/C (dose: 100.0 mg/kg/injection, schedule: Q01DX001 (ip), vehicle: saline with Tween-80)?
Its T/C is 96 % of control.

What about the T/C (dose: 200.0 mg/kg/injection, schedule: Q01DX001 (ip), vehicle: saline with Tween-80) of the same molecule?
Its T/C is 98 % of control.

Which T/C (dose: 25.0 mg/kg/injection, schedule: Q01DX005 (ip), vehicle: saline) does the source give for `COc1cc2c(c(OC)c1OC)-c1ccc(SC)c(=O)cc1[C@@H](NC1OC(CO)C(O)C(O)C1O)CC2` (stereo partly drawn) here?
The T/C was 102 % of control.

And the T/C (dose: 50.0 mg/kg/injection, schedule: Q01DX009 (ip), vehicle: saline)?
Its T/C is 150 % of control.

And the T/C (dose: 75.0 mg/kg/injection, schedule: Q01DX009 (ip), vehicle: saline)?
The T/C was 95 % of control.

And the T/C (dose: 150.0 mg/kg/injection, schedule: Q01DX005 (ip), vehicle: saline)?
Its T/C is 120 % of control.

Which results are given for `O=[N+]([O-])c1ccc2c(c1)N(CCCN1CCN(CCO)CC1)c1ccccc1S2`?
T/C (dose: 12.5 mg/kg/injection, schedule: Q04DX003 (ip), vehicle: saline): 111 % of control; T/C (dose: 25.0 mg/kg/injection, schedule: Q04DX003 (ip), vehicle: saline): 122 % of control

How did the T/C (dose: 100.0 mg/kg/injection, schedule: Q01DX009 (ip), vehicle: acetone) turn out when `COC1C(=O)CCC2(CO2)C1(O)C1(C)OC1CCC(C)C` (stereo not drawn) was run?
The T/C was 95 % of control.

And the T/C (dose: 200.0 mg/kg/injection, schedule: Q01DX009 (ip), vehicle: acetone)?
The T/C was 92 % of control.

Which results are given for `c1cncc(-c2ncnc3c2Cc2ccccc2-3)c1`?
T/C [4]: 97 % of control; T/C [5]: 111 % of control

Which results are given for `OCCc1c[nH]c2ccccc12`?
T/C [4]: 97 % of control; T/C [5]: 94 % of control; T/C (dose: 400.0 mg/kg/injection, schedule: Q04DX003 (ip), vehicle: Klucel (hydroxypropylcellulose) (HPC)): 97 % of control

`Nc1ccc(Cl)cc1C(=O)c1ccccn1` was tested. Which T/C (dose: 100.0 mg/kg/injection, schedule: Q04DX003 (ip), vehicle: saline with Tween-80) did it give?
Its T/C is 100 % of control.

What about the T/C (dose: 200.0 mg/kg/injection, schedule: Q04DX003 (ip), vehicle: saline with Tween-80) of the same molecule?
The T/C was 108 % of control.

And the T/C (dose: 400.0 mg/kg/injection, schedule: Q04DX003 (ip), vehicle: saline with Tween-80)?
Its T/C is 97 % of control.

For `CC1OC(n2cnc3c(N)nc(F)nc32)C(O)C1O` (stereo not drawn), which T/C (dose: 37.5 mg/kg/injection, schedule: Q01DX001 (ip), vehicle: other) is on record?
Its T/C is 112 % of control.

With `CC(=O)C(O)N1C(=O)C=CC1=O` (stereo not drawn) as the molecule, how does the T/C (dose: 1.25 mg/kg/injection, schedule: Q01DX009 (ip), vehicle: saline) read?
Its T/C is 103 % of control.

What about the T/C (dose: 1.25 mg/kg/injection, schedule: Q#A X018 (ip), vehicle: saline) of the same molecule?
The T/C was 103 % of control.

What about the T/C (dose: 2.5 mg/kg/injection, schedule: Q01DX009 (ip), vehicle: saline) of the same molecule?
The T/C was 100 % of control.

And the T/C (dose: 2.5 mg/kg/injection, schedule: Q04DX003 (ip), vehicle: water)?
Its T/C is 104 % of control.

And the T/C (dose: 2.5 mg/kg/injection, schedule: Q## X006 (ip), vehicle: water)?
Its T/C is 104 % of control.

What about the T/C (dose: 2.5 mg/kg/injection, schedule: Q#A X018 (ip), vehicle: saline) of the same molecule?
The T/C was 102 % of control.

And the T/C (dose: 5.0 mg/kg/injection, schedule: Q01DX009 (ip), vehicle: saline)?
The T/C was 91 % of control.

What about the T/C (dose: 5.0 mg/kg/injection, schedule: Q04DX003 (ip), vehicle: water) of the same molecule?
The T/C was 102 % of control.

And the T/C (dose: 5.0 mg/kg/injection, schedule: Q## X006 (ip), vehicle: water)?
Its T/C is 102 % of control.

And the T/C (dose: 5.0 mg/kg/injection, schedule: Q#A X018 (ip), vehicle: saline)?
The T/C was 100 % of control.

And the T/C (dose: 10.0 mg/kg/injection, schedule: Q## X006 (ip), vehicle: water)?
Its T/C is 104 % of control.

What about the T/C (dose: 10.0 mg/kg/injection, schedule: Q#A X018 (ip), vehicle: saline) of the same molecule?
The T/C was 100 % of control.

Which T/C [3] does the source give for `CNc1ccc(C(=O)NC(CCC(=O)O)C(=O)O)cc1C(F)(F)F` (stereo not drawn) here?
The T/C was 98 % of control.

And the T/C (dose: 200.0 mg/kg/injection, schedule: Q01DX009 (ip), vehicle: Klucel (hydroxypropylcellulose) (HPC))?
Its T/C is 96 % of control.

And the T/C (dose: 400.0 mg/kg/injection, schedule: Q01DX009 (ip), vehicle: Klucel (hydroxypropylcellulose) (HPC))?
Its T/C is 98 % of control.

Which T/C (dose: 50.0 mg/kg/injection, schedule: Q01DX009 (ip), vehicle: saline with Tween-80) does the source give for `CC=C(C)c1ccccc1` (mixture of isomers) here?
Its T/C is 118 % of control.

What about the T/C (dose: 100.0 mg/kg/injection, schedule: Q01DX009 (ip), vehicle: saline with Tween-80) of the same molecule?
The T/C was 123 % of control.

What about the T/C (dose: 200.0 mg/kg/injection, schedule: Q01DX009 (ip), vehicle: saline with Tween-80) of the same molecule?
The T/C was 94 % of control.

For `O=C1NCC2(O1)c1ccccc1-c1ccccc12`, which T/C (dose: 25.6 mg/kg/injection, schedule: Q04DX002 (ip), vehicle: saline with Tween-80) is on record?
Its T/C is 92 % of control.

And the T/C (dose: 64.0 mg/kg/injection, schedule: Q04DX002 (ip), vehicle: saline with Tween-80)?
The T/C was 98 % of control.

And the T/C (dose: 160.0 mg/kg/injection, schedule: Q04DX002 (ip), vehicle: saline with Tween-80)?
Its T/C is 113 % of control.
